The values that follow come from ChEMBL document CHEMBL3044701, “Synthesis, characterization and biological activity of Schiff bases derived from metronidazole” (Med Chem Res, 2012).

Experiment [1] relates to Staphylococcus aureus. Kind of experiment: Antibacterial activity against Staphylococcus aureus ATCC 6538P after 24 hr by broth microdilution method. The class given is functional.
The subject of experiment [2] is Escherichia coli. Kind of experiment: Antibacterial activity against Escherichia coli ATCC 8739 after 24 hr by broth microdilution method. Type of experiment: functional. The settings on record: ATCC 8739, 24 h.
Experiment [3] deals with Clostridium sporogenes. Kind of experiment: Antibacterial activity against Clostridium sporogenes ATCC 19404 after 24 hr by broth microdilution method. Type of experiment: functional. The settings on record: ATCC 19404, 24 h.
The subject of experiment [4] is Giardia intestinalis. Kind of experiment: Antigiardial activity against Giardia intestinalis WB by trypan blue assay. Type of experiment: functional, organism-based. The note with it: Giardia duodenalis.
Experiment [5] has as its system Candida albicans. Kind of experiment: Antifungal activity against Candida albicans ATCC 10231 up to 1.25 mg/ml after 24 hr by broth microdilution method. The class given is functional, organism-based.
Experiment [6] relates to Candida albicans. As to the kind of experiment: Antifungal activity against Candida albicans ATCC 10231 after 24 hr by broth microdilution method. Type of experiment: functional. The settings on record: ATCC 10231, 24 h.
Experiment [7] has as its system Escherichia coli. Kind of experiment: Antibacterial activity against Escherichia coli ATCC 8739 up to 1.25 mg/ml after 24 hr by broth microdilution method. Type of experiment: functional, organism-based. (In general: Broth dilution looks for growth in wells or tubes with falling amounts of substance.)
For experiment [8], the system named is Staphylococcus aureus. Kind of experiment: Antibacterial activity against Staphylococcus aureus ATCC 6538P up to 1.25 mg/ml after 24 hr by broth microdilution method. Type of experiment: functional, organism-based.
In experiment [9] the test system is Giardia intestinalis. Kind of experiment: Ratio of metronidazole IC50 to compound IC50 for Giardia intestinalis. Type of experiment: functional, Giardia duodenalis.

pIC50: −log10 of the molar value. ≈ marks a conversion by molar mass, not a printed value. Calls of active or inactive are those of the source. The calls are words filed in the database; no cut-off is given here.

Broadly, the MIC is the lowest concentration that inhibits growth of the organism. A word on the pIC50: it is the negative decadic logarithm of the IC50, by convention in mol/L. The low end stands for a high IC50, the high end for a low IC50. On to `Cc1ncc([N+](=O)[O-])n1CCO` [METRONIDAZOLE], for which the minimum inhibitory concentration (MIC) in [1] (read-out: MIC) amounted to 2050 µM; in experiment [2] (read-out: MIC) it was 5480 µM; in experiment [3] it was 45.6 µM (≈ 7.8 µg/mL). The compound further gave a negative logarithm of the IC50 (pIC50) in experiment [4] of 5.43. Moreover, in [5], the outcome was inactive.

As to `Cc1ncc([N+](=O)[O-])n1CC/N=C/c1ccco1`, the minimum inhibitory concentration (MIC) in [1] (read-out: MIC) is 8850 µM; in [2] (read-out: MIC), 8850 µM; in [3], 236 µM (≈ 58.6 µg/mL). Besides, the pIC50 in experiment [4] is 5.56. Also, the result in experiment [5] was inactive.

Regarding `Clc1ccc(COC(Cn2ccnc2)c2ccc(Cl)cc2Cl)c(Cl)c1` (centres undefined) [MICONAZOLE], the minimal inhibitory concentration (MIC) in experiment [6] was 2.9 µg/mL.

`Cc1ncc([N+](=O)[O-])n1CC/N=C/c1cc(Cl)ccc1O`: the MIC came to 440 µM in experiment [6] (read-out: MIC), 760 µM in experiment [1] (read-out: MIC), 760 µM in experiment [2] (read-out: MIC) and 1010 µM (≈ 313 µg/mL) in experiment [3]. The compound also gave a negative-log IC50 (pIC50) in [4] of 5.36.

As to `Cc1ncc([N+](=O)[O-])n1CC/N=C/c1ccc([N+](=O)[O-])cc1`, the MIC was 450 µM in experiment [6] (read-out: MIC) and 257 µM (≈ 77.9 µg/mL) in [3]. The compound further gave a pIC50 in [4] of 5.74. The outcome in experiment [7] and in experiment [8] was inactive.

As to `Cc1ccc(/C=N/CCn2c([N+](=O)[O-])cnc2C)cc1`, the minimum inhibitory concentration (MIC) in experiment [6] (read-out: MIC) was determined as 1000 µM; in [1] (read-out: MIC), 6890 µM; in experiment [2] (read-out: MIC) it was 4370 µM; in experiment [3] it was 1440 µM (≈ 392 µg/mL). Besides, in experiment [4], the pIC50 is 5.87.

On to `Cc1ncc([N+](=O)[O-])n1CC/N=C/c1ccncc1`, for which the minimal inhibitory concentration (MIC) was found to be 8460 µM in experiment [1] (read-out: MIC), 8460 µM in [2] (read-out: MIC) and 376 µM (≈ 97.5 µg/mL) in [3]. Also, the pIC50 in experiment [4] was 4.95. For the same compound, in experiment [5], the outcome was inactive.

In the case of `CC1(C)S[C@@H]2[C@H](NC(=O)[C@H](N)c3ccccc3)C(=O)N2[C@H]1C(=O)O` [AMPICILLIN], the MIC in [1] is 0.036 µg/mL; in experiment [2], 2.3 µg/mL.

Turning to `Cc1ncc([N+](=O)[O-])n1CC/N=C/c1ccccc1O`, the minimum inhibitory concentration (MIC) was 360 µM in [6] (read-out: MIC), 2000 µM in experiment [1] (read-out: MIC), 2240 µM in experiment [2] (read-out: MIC) and 285 µM (≈ 78.2 µg/mL) in experiment [3]. In experiment [4], the pIC50 was 5.67.

Take `Cc1ncc([N+](=O)[O-])n1CC/N=C/c1cccs1`: the MIC in experiment [6] (read-out: MIC) was 2070 µM; in [1] (read-out: MIC), 7100 µM; in [2] (read-out: MIC), 7100 µM; in [3], 369 µM (≈ 97.5 µg/mL). Further, the pIC50 in experiment [4] is 6.08. In [9], the “Ratio IC50” value turned out to be 5.

As to `Cc1ncc([N+](=O)[O-])n1CC/N=C/c1ccc(F)cc1`, the MIC was 1990 µM in experiment [6] (read-out: MIC), 5090 µM in experiment [1] (read-out: MIC), 4300 µM in [2] (read-out: MIC) and 1130 µM (≈ 313 µg/mL) in experiment [3]. Also, the negative logarithm of the IC50 (pIC50) in experiment [4] was 5.62.

For the compound `COc1ccc(/C=N/CCn2c([N+](=O)[O-])cnc2C)cc1`, the minimal inhibitory concentration (MIC) in experiment [6] (read-out: MIC) came out at 340 µM; in experiment [1] (read-out: MIC) it was 4340 µM; in [2] (read-out: MIC), 4340 µM; in experiment [3] it was 203 µM (≈ 58.5 µg/mL). The same compound had a negative-log IC50 (pIC50) in experiment [4] of 5.65.

With `Cc1ncc([N+](=O)[O-])n1CC/N=C/c1ccccc1Cl`, the minimum inhibitory concentration (MIC) was found to be 170 µM in experiment [6] (read-out: MIC), 2670 µM in experiment [1] (read-out: MIC), 2140 µM in [2] (read-out: MIC) and 267 µM (≈ 78.2 µg/mL) in [3]. In [4], this compound gave a negative logarithm of the IC50 (pIC50) of 5.14.
